{"source": "patent US9320270B2", "about": "“Method of field application of natural pesticides with reduced toxicity and high efficacy by means of microencapsulation” (priority 2009, dated 2016)", "test": "decomposition during emulsification at 70° C.", "type": "physicochemical", "conditions": "without antioxidants and weak acids", "method": "The process of microencapsulation is performed adding the oil phase to the first water phase under high shear stress, being emulsified at 70° C."}
{"substance": "abamectin", "values": [{"measurement": "decomposition during emulsification", "result": "5-25%"}]}
